# US6287834A, “Characterization and use of an isolated uridine diphospho-glucuronosyltransferase” (Endorecherche, Inc., priority 1999, dated 2001)
# T1: UGT2B17 (Homo sapiens, UniProt O75795)
# T1 construct: cell homogenate
# T1 sequence (O75795 24-530): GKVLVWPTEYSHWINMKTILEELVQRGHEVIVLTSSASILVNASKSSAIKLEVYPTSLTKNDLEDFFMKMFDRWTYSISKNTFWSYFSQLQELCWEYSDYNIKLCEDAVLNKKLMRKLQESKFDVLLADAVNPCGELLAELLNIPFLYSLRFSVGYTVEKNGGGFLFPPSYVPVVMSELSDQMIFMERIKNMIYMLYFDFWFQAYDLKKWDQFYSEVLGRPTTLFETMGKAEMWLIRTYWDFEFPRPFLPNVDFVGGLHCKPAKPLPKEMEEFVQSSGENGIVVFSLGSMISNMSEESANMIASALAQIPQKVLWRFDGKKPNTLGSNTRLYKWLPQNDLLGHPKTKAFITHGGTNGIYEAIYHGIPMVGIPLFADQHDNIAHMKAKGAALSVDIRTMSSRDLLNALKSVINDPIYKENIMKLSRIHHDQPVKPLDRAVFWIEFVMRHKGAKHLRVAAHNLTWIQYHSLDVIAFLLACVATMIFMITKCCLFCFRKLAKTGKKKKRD
# B1: uridine diphospho-glucuronosyltransferase 2B17 (protein)
# chain: MSLKWMSVFLLMQLSCYFSSGSCGKVLVWPTEYSHWINMKTILEELVQRGHEVIVLTSSASILVNASKSSAIKLEVYPTSLTKNDLEDFFMKMFDRWTYSISKNTFWSYFSQLQELCWEYSDYNIKLCEDAVLNKKLMRKLQESKFDVLLADAVNPCGELLAELLNIPFLYSLRFSVGYTVEKNGGGFLFPPSYVPVVMSELSDQMIFMERIKNMIYMLYFDFWFQAYDLKKWDQFYSEVLGRPTTLFETMGKAEMWLIRTYWDFEFPRPFLPNVDFVGGLHCKPAKPLPKEMEEFVQSSGENGIVVFSLGSMISNMSEESANMIASALAQIPQKVLWRFDGKKPNTLGSNTRLYKWLPQNDLLGHPKTKAFITHGGTNGIYEAIYHGIPMVGIPLFADQHDNIAHMKAKGAALSVDIRTMSSRDLLNALKSVINDPIYKENIMKLSRIHHDQPVKPLDRAVFWIEFVMRHKGAKHLRVAAHNLTWIQYHSLDVIAFLLACVATMIFMITKCCLFCFRKLAKTGKKKKRD
# B2: UGT2B17 (Homo sapiens) (protein)
# chain: T1 sequence (O75795 24-530)
# Columns and labels:
# UGT2B17 [1] = molecular target: T1, UGT2B17; assay: Second glucuronidation assay to determine the amount of enzyme activity (glucuronide formation); format: biochemical; details: for Glucuronide Formation (pmol/min/mg protein): HK293-UGT2B17 cell homogenate, 6 μM [14C]UDPGA and 494 μM unlabelled UDPGA, 15 minutes at 30° C.; for identified as major endogenous substrates of UGT2B17: 3α and 17β hydroxyandrogens
# Description: Stable Expression of UGT2B17. Human kidney 293 cells were grown in Dubelcco's modified Eagle's medium containing 4.5 g/l glucose, 10 mM HEPES, 110 μg/ml sodium pyruvate, 100 IU of penicillin/ml, 100 μg/ml of streptomycin and 10% fetal bovine serum (FBS) in a humidified incubator, with an atmosphere of 5% CO2, at 37° C. 5 μg of pBK-CMV-UGT2B17 was used to transfect HK293 cells using Lipofectin and following the manufacturer's instructions (Gibco BRL: Burlington, Canada). Forty-eight hours after transfection, stable transfectants were selected in a media containing 800 μg/ml G418.
# Glucuronidation Assay Using Cell Homogenates. HK293 cells expressing UGT2B17 were suspended in a Tris buffered saline containing 0.5 mM DTT and were homogenized using a Brinkman polytron. Enzyme assays were performed using [^14 C] UDP-glucuronic acid ([…]), 500 μM of the various aglycones and 150 μg of protein from cell homogenates in 50 mM Tris-HCl (pH 7.5), 10 mM MgCl2, 100 μg/ml phosphatidylcholine and 8.5 mM saccharolactone in a final volume of 100 μl. The enzyme assays were terminated by adding 100 μl of methanol, and the tubes were centrifuged at 14,000 g for 1 minute to remove the precipitated proteins. 100 μl of the aqueous phase was applied onto thin layer chromatography (TLC) plates (0.25 mm thick silica gel, 60 F254 S) (EM Science, Gibbstown, N.J.) and then was chromatographed in a solvent of toluene:methanol:acetic acid in the proportion of 7:3:1. The TLC plates were exposed for four days and the extent of glucuronidation was measured by Phosphorimager (Molecular Dynamics).
# In the second assay, the substrate was exposed to […]
# UGT2B17 [2] = molecular target: T1, UGT2B17; assay: Kinetic analysis of UGT2B17 specificity (Lineweaver-Burk plots, FIGS. 4A and 4B); format: biochemical
# Description: to FIGS. 4A and 4B are Lineweaver-Burk plots of ADT and DHT, and 3α-DIOL and testosterone (TESTO), respectively; and
# A kinetic analysis was also performed to further characterize the specificity of UGT2B17 for ADT, DHT, 3α-DIOL and testosterone.
# [3] = test system: androgen response element reporter in LNCaP cells; assay: Androgen response element reporter construct in LNCaP cells transfected with UGT2B17; format: cell-based, human
# From the text: Reducing androgen activity with UGT2B17. LNCaP cells were transfected with UGT2B17 in the presence of a reporter construct controlled by an androgen response element so as the expression of the reporter gene is indicative of androgenic activity.
# [4] = substrate: O=C(O)[C@H]1O[C@H](OP(=O)(O)OP(=O)(O)OC[C@H]2O[C@@H](n3ccc(=O)[nH]c3=O)[C@H](O)[C@@H]2O)[C@H](O)[C@@H](O)[C@@H]1O; assay: cells, lysate or membranes; details: other: 30° C., reaction linear for 30 minutes, pH 7.5
Molecule,Glucuronide Formation (pmol/min/mg protein) (UGT2B17 [1]),identified as major endogenous substrates of UGT2B17 (UGT2B17 [1]),also measured
"C[C@]12CC[C@@H](O)C[C@@H]1CC[C@@H]1[C@@H]2[C@H](O)C[C@]2(C)[C@@H](O)CC[C@@H]12 [5α-Androstane-3α,11α,17β-triol]",5 pmol/min/mg protein,–,–
"C[C@]12CC[C@@H](O)C[C@@H]1CC[C@@H]1[C@@H]2[C@@H](O)C[C@]2(C)[C@@H](O)CC[C@@H]12 [5α-Androstane-3α,11β,17β-triol]",8 pmol/min/mg protein,–,–
"C[C@]12CC[C@@H](O)C[C@@H]1CC[C@@H]1[C@@H]2CC[C@]2(C)[C@@H](O)CC[C@@H]12 [5α-Androstane-3α,17β-diol]",15 pmol/min/mg protein,major endogenous substrates,affinity of the enzyme based on Km values (UGT2B17 [2]): similar
"C[C@]12CC[C@H](O)C[C@@H]1CC[C@@H]1[C@@H]2CC[C@]2(C)[C@@H](O)CC[C@@H]12 [5α-Androstane-3β,17β-diol]",–,major endogenous substrates,–
"C[C@H](O)[C@H]1CC[C@H]2[C@@H]3CC[C@H]4C[C@H](O)CC[C@]4(C)[C@H]3CC[C@]12C [5α-pregnane-3α,20α-diol]",8 pmol/min/mg protein,–,–
"C[C@]12CC[C@@H](O)C[C@H]1CC[C@@H]1[C@@H]2CC[C@]2(C)[C@@H](O)[C@H](O)C[C@@H]12 [5β-Androstane-3α,16α,17β-triol]",11 pmol/min/mg protein,–,–
"C[C@]12CC[C@@H](O)C[C@H]1CC[C@@H]1[C@@H]2CC[C@]2(C)[C@@H](O)CC[C@@H]12 [5β-Androstane-3α,17β-diol]",14 pmol/min/mg protein,–,–
"C[C@]12CC[C@H]3[C@@H](CC=C4C[C@@H](O)CC[C@@]43C)[C@@H]1CC[C@@H]2O [Androst-5-ene-3β,17β-diol]",–,major endogenous substrates,–
C[C@]12CC[C@@H](O)C[C@@H]1CC[C@@H]1[C@@H]2CC[C@]2(C)C(=O)CC[C@@H]12 [Androsterone],5 pmol/min/mg protein,major endogenous substrates,affinity of the enzyme based on Km values (UGT2B17 [2]): similar
C[C@]12CCC(=O)C[C@@H]1CC[C@@H]1[C@@H]2CC[C@]2(C)[C@@H](O)CC[C@@H]12 [Dihydrotestosterone],14 pmol/min/mg protein,major endogenous substrates,affinity of the enzyme based on Km values (UGT2B17 [2]): similar
C[C@]12CC[C@@H](O)C[C@H]1CC[C@@H]1[C@@H]2CC[C@]2(C)C(=O)CC[C@@H]12 [Etiocholanolone],13 pmol/min/mg protein,–,–
C=CCc1ccc(O)c(OC)c1 [Eugenol],38 pmol/min/mg protein,–,–
C[C@]12CC[C@H]3[C@@H](CCC4=CC(=O)CC[C@@]43C)[C@@H]1CC[C@@H]2O [Testosterone],9 pmol/min/mg protein,major endogenous substrates,affinity of the enzyme based on Km values (UGT2B17 [2]): similar
Oc1cccc2ccccc12 [l-naphtol],7 pmol/min/mg protein,–,–
"Oc1ccccc1-c1ccccc1O [o,o' biphenyl]",7 pmol/min/mg protein,–,–
"Oc1ccc(-c2ccc(O)cc2)cc1 [p,p' biphenyl]",5 pmol/min/mg protein,–,–
O=[N+]([O-])c1ccc(O)cc1 [p-nitrophenol],4 pmol/min/mg protein,–,–
B1,–,–,expression of the reporter gene (indicative of androgenic activity) [3]: decreased expression of the reporter gene
B2,–,–,Km [4]: 200 µM
